Measurements: ChEMBL document CHEMBL1909569 (Bioorg Med Chem Lett, 2011)
≈ marks a conversion by molar mass, not a printed value.

Experiments:
[1] = test system: Mycobacterium tuberculosis; experiment: Antimicrobial activity against non-replicating Mycobacterium tuberculosis after 11 days by luminescence based low oxygen recovery assay; format: functional; conditions: 264 h
[2] = test system: Mycobacterium tuberculosis; experiment: Antimicrobial activity against replicating Mycobacterium tuberculosis after 8 days by micro plate alamar blue assay; format: functional; conditions: 192 h
[3] = test system: Escherichia coli; experiment: Antimicrobial activity against wild type Escherichia coli DH5[alpha] after 16 to 20 hrs; format: functional
[4] = test system: Escherichia coli; experiment: Antimicrobial activity against wild type Escherichia coli TG2 after 16 to 20 hrs; format: functional
[5] = molecular target: T1, DNA-directed RNA polymerase subunit beta (Mycobacterium tuberculosis) (UniProt P9WGY9); experiment: (§1) Inhibition of wild type Mycobacterium tuberculosis RNA polymerase after 10 mins using ribo green staining by rolling circle transcription assay; set-up: unit not given here
T1 sequence (whole entry): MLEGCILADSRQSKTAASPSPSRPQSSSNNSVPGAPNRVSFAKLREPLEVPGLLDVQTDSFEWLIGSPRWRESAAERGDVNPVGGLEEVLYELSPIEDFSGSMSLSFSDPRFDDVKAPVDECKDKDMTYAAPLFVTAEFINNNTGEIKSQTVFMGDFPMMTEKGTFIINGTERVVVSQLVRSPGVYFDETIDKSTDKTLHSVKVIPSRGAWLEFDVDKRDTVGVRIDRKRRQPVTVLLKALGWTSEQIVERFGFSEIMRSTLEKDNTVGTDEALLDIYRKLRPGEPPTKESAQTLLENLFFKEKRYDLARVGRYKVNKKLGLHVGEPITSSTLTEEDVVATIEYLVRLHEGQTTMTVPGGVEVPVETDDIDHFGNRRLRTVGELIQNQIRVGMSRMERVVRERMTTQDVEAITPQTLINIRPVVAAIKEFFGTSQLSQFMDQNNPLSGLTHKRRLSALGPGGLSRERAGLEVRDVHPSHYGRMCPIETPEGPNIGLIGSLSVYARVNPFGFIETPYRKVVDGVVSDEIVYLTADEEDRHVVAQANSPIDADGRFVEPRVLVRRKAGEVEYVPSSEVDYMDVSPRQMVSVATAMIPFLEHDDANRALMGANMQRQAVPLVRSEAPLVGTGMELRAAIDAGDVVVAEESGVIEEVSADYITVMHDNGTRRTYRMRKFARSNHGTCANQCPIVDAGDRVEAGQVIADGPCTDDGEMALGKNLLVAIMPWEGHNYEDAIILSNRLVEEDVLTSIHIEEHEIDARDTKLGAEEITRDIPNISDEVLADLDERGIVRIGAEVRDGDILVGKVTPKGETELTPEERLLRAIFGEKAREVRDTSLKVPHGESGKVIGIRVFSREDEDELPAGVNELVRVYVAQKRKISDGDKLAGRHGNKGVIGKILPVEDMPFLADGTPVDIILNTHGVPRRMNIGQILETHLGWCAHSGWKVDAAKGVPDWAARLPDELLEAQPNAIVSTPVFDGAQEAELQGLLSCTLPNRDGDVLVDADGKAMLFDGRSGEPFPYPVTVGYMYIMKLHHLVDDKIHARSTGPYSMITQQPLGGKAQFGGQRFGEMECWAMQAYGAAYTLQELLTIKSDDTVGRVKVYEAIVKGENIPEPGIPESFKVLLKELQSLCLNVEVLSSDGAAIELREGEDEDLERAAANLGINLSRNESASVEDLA

[6] = molecular target: T2, DNA-directed RNA polymerase subunit beta (Mycobacterium tuberculosis, UniProt P9WGY9); experiment: as §1
T2 sequence (P9WGY9 whole entry): T1 sequence (whole entry)

[7] = test system: Escherichia coli; experiment: Antimicrobial activity against Escherichia coli EC2880 mutant after 16 to 20 hrs; format: functional

C/C=C/Nc1c(C)c2c3c4c1C(=O)C(=C(/C=N/N1CCN(C)CC1)C4=O)NC(=O)/C(C)=C\C=C\[C@H](C)[C@H](O)[C@@H](C)[C@@H](O)[C@@H](C)[C@H](OC(C)=O)[C@H](C)[C@@H](OC)/C=C/O[C@@](C)(O2)C3=O
MIC90 [1]: > 18.6 µM | MIC90 [2]: > 4.7 µM

CO[C@H]1/C=C/O[C@@]2(C)Oc3c(C)c(NCCO)c4c(c3C2=O)C(=O)C(/C=N/N2CCN(C)CC2)=C(NC(=O)/C(C)=C\C=C\[C@H](C)[C@H](O)[C@@H](C)[C@@H](O)[C@@H](C)[C@H](OC(C)=O)[C@@H]1C)C4=O
MIC90 [1]: > 18.5 µM | MIC90 [2]: > 4.6 µM

C/C=C/Nc1c(C)c2c3c4c(O)c(/C=N/N5CCN(C)CC5)c(c(O)c14)NC(=O)/C(C)=C\C=C\[C@H](C)[C@H](O)[C@@H](C)[C@@H](O)[C@@H](C)[C@H](OC(C)=O)[C@H](C)[C@@H](OC)/C=C/O[C@@](C)(O2)C3=O
MIC90 [1]: > 18.6 µM | MIC90 [2]: > 4.6 µM

CO[C@H]1/C=C/O[C@@]2(C)Oc3c(C)c(OS(=O)(=O)c4ccc(C)cc4)c4c(c3C2=O)C(=O)C(/C=N/N2CCN(C)CC2)=C(NC(=O)/C(C)=C\C=C\[C@H](C)[C@H](O)[C@@H](C)[C@@H](O)[C@@H](C)[C@H](OC(C)=O)[C@@H]1C)C4=O
MIC90 [3]: > 100 µM | MIC90 [4]: > 100 µM

CO[C@H]1/C=C/O[C@@]2(C)Oc3c(C)c(SC)c4c(c3C2=O)C(=O)C=C(NC(=O)/C(C)=C\C=C\[C@H](C)[C@H](O)[C@@H](C)[C@@H](O)[C@@H](C)[C@H](OC(C)=O)[C@@H]1C)C4=O
MIC90 [1]: 1.3 µM (≈ 0.944 µg/mL) | MIC90 [3]: > 100 µM | MIC90 [2]: 2 µM (≈ 1.45 µg/mL) | MIC90 [4]: > 100 µM | logIC50 [5]: -1.82 | IC50 [6]: 15 nM | MIC90 [7]: > 12.5 µM

CO[C@H]1/C=C/O[C@@]2(C)Oc3c(C)c(O)c4c(c3C2=O)C(=O)C=C(NC(=O)/C(C)=C\C=C\[C@H](C)[C@H](O)[C@@H](C)[C@@H](O)[C@@H](C)[C@H](OC(C)=O)[C@@H]1C)C4=O [RIFAMYCIN S]
MIC90 [1]: 0.4 µM (≈ 0.278 µg/mL) | MIC90 [3]: > 100 µM | MIC90 [2]: 0.03 µM (≈ 0.0209 µg/mL) | MIC90 [4]: 100 µM (≈ 69.6 µg/mL) | IC50 [6]: < 10 nM | MIC90 [7]: 0.78 µM (≈ 0.543 µg/mL)

CO[C@H]1/C=C/O[C@@]2(C)Oc3c(c4c5c(nn(CCO)c5c3C)C(=C(/C=N/N3CCN(C)CC3)C4=O)NC(=O)/C(C)=C\C=C\[C@H](C)[C@H](O)[C@@H](C)[C@@H](O)[C@@H](C)[C@H](OC(C)=O)[C@@H]1C)C2=O
MIC90 [1]: > 18.6 µM | MIC90 [3]: > 100 µM | MIC90 [2]: 3.9 µM (≈ 3.36 µg/mL) | MIC90 [4]: > 100 µM | logIC50 [5]: -0.856 | IC50 [6]: 139 nM | MIC90 [7]: > 12.5 µM

CO[C@H]1/C=C/O[C@@]2(C)Oc3c(c4c5c(nn(CCO)c5c3C)C(=CC4=O)NC(=O)/C(C)=C\C=C\[C@H](C)[C@H](O)[C@@H](C)[C@@H](O)[C@@H](C)[C@H](OC(C)=O)[C@@H]1C)C2=O
MIC90 [1]: > 21.7 µM | MIC90 [2]: > 5.4 µM

CNc1c(C)c2c3c4c1C(=O)C(=CC4=O)NC(=O)/C(C)=C\C=C\[C@H](C)[C@H](O)[C@@H](C)[C@@H](O)[C@@H](C)[C@H](OC(C)=O)[C@H](C)[C@@H](OC)/C=C/O[C@@](C)(O2)C3=O
MIC90 [1]: 20.6 µM (≈ 14.6 µg/mL) | MIC90 [2]: > 5.6 µM

CO[C@H]1/C=C/O[C@@]2(C)Oc3c(C)c(NCCO)c4c(O)c(c(/C=N/N5CCN(C)CC5)c(O)c4c3C2=O)NC(=O)/C(C)=C\C=C\[C@H](C)[C@H](O)[C@@H](C)[C@@H](O)[C@@H](C)[C@H](OC(C)=O)[C@@H]1C
MIC90 [1]: > 18.5 µM | MIC90 [2]: > 4.6 µM

CCNc1c(C)c2c3c4c1C(=O)C(=C(/C=N/N1CCN(C)CC1)C4=O)NC(=O)/C(C)=C\C=C\[C@H](C)[C@H](O)[C@@H](C)[C@@H](O)[C@@H](C)[C@H](OC(C)=O)[C@H](C)[C@@H](OC)/C=C/O[C@@](C)(O2)C3=O
MIC90 [1]: > 18.9 µM | MIC90 [2]: > 4.7 µM

COc1c(N2C[C@@H]3CCCN[C@@H]3C2)c(F)cc2c(=O)c(C(=O)O)cn(C3CC3)c12 [MOXIFLOXACIN]
MIC90 [1]: 4.3 µM (≈ 1.73 µg/mL) | MIC90 [2]: 0.64 µM (≈ 0.257 µg/mL)

CONc1c(C)c2c3c4c1C(=O)C(=CC4=O)NC(=O)/C(C)=C\C=C\[C@H](C)[C@H](O)[C@@H](C)[C@@H](O)[C@@H](C)[C@H](OC(C)=O)[C@H](C)[C@@H](OC)/C=C/O[C@@](C)(O2)C3=O
MIC90 [1]: 12.5 µM (≈ 9.06 µg/mL) | MIC90 [2]: 3.8 µM (≈ 2.75 µg/mL)

CO[C@H]1/C=C/O[C@@]2(C)Oc3c(C)c(O)c4c(O)c(c(/C=N/N5CCN(C)CC5)c(O)c4c3C2=O)NC(=O)/C(C)=C\C=C\[C@H](C)[C@H](O)[C@@H](C)[C@@H](O)[C@@H](C)[C@H](OC(C)=O)[C@@H]1C [RIFAMPIN]
MIC90 [1]: 1.9 µM (≈ 1.56 µg/mL) | MIC90 [3]: 12.5 µM (≈ 10.3 µg/mL) | MIC90 [2]: 0.13 µM (≈ 0.107 µg/mL) | MIC90 [4]: 12.5 µM (≈ 10.3 µg/mL) | MIC90 [7]: 0.1 µM (≈ 0.0823 µg/mL)
